Data taken from paper PMC11238290, “Anti-Staphy Peptides Rationally Designed from Cry10Aa Bacterial Protein” (ACS Omega, 2024).
Where a SMILES comes first, the peptide text is derived from it.

Assays:
[1] = Peptide stability in human serum by RP-HPLC; assay type: in vitro ADME; conditions: human serum (male AB plasma, Sigma-Aldrich), serum:peptide 5:1 v/v, peptide 256 μM, 37 °C, RP-HPLC Venusil ASB C18, PDA 216 nm; for relative peak area (%), peptide remaining in human serum, 6 h: 360 min; for peptide remaining in human serum, 24 h: triplicate
Method: (§1) The stability of peptides AMPCry10Aa, AMPCry10Aa_1, and AMPCry10Aa_5, against serum proteases was evaluated as previously described.[86],[87] Aliquots of filtered human serum from male AB plasma from Sigma-Aldrich were mixed with each peptide to a final concentration of 256 μM in a 5:1 v/v ratio. Each aliquot was then incubated at 37 °C, and 200 μL was collected for analysis of peptide degradation at 0, 2, 4, 6, 12, and 24 h. The samples were analyzed by reversed-phase high-performance liquid chromatography (RP-HPLC) with a Shimadzu LC system (Kyoto, Japan) using LC Solution software. A gradient method and a Venusil ASB C18 column (250 mm × 4.6 mm, 5 μm, Bonna-Agela Technologies) with an injection volume of 15 μL were used. A segmented gradient was applied with a constant flow rate of 1.0 mL min^–1 and PDA detection at 216 nm using water and acetonitrile eluents as the mobile phase. The peptide amount was quantified by subtracting the relative area of each analyzed time peak from the initial control peak area. All assays were performed in triplicate.

serum proteases = experiment: Peptide stability in human serum by RP-HPLC; assay type: in vitro ADME; conditions: human serum (male AB plasma, Sigma-Aldrich), serum:peptide 5:1 v/v, peptide 256 μM, 37 °C, RP-HPLC Venusil ASB C18, PDA 216 nm, mean ± SD of three replicates; for remaining at 2 h, 256 μM: read-out: relative peak area (%), peptide remaining in human serum, 2 h; for remaining at 4 h, 256 μM: read-out: relative peak area (%), peptide remaining in human serum, 4 h; for remaining at 6 h, 256 μM: read-out: relative peak area (%), peptide remaining in human serum, 6 h; for remaining at 12 h, 256 μM: read-out: relative peak area (%), peptide remaining in human serum, 12 h
Method: as §1

[2] = Solubility observed in the aqueous EPR treatment solution; assay type: physicochemical; conditions: 100 μg of peptide in 50 μL of PBS (EPR treatment); observation
Excerpt: The EPR spectra (Figure 8A) indicate that the spin probe was structured in very rigid membranes, presenting 2A∥ values of ∼62 to ∼63 G, much higher than those found for the Leishmania parasite (∼54 G).[73]−[76] […] Pronounced increases in lipid fluidity generally create disorder in the lipid chains packaging, especially at lipid–protein interfaces, where they increase the likelihood of pore formation that could lead to electrolyte leakage and permeation of small molecules.[77]
Peptides' immediate effects on bacteria’s outermost membrane fluidity were analyzed by EPR spectroscopy. The bacteria in culture (1 × 10^9 CFU) were centrifuged and resuspended in 50 μL of PBS containing 100 μg of peptide. After 20 min of incubation, the sample was spin-labeled for the EPR experiment. To incorporate the spin label into the bacterial membranes, a 5 mg·mL^–1 ethanolic solution containing the spin label 5-doxyl stearic acid (5-DSA, Sigma-Aldrich, St. Louis, MO, USA) was added to each sample. Immediately after spin labeling, the sample was transferred to a 1 mm i.d. capillary tube, which was flame-sealed on one side. The capillary was centrifuged at 25,000 × g for 5 min, and the cell pellet of approximately 2 mm was placed in the center of the resonance cavity. […]

Structure (SMILES) | relative peak area (%), peptide remaining in human serum, 0 h ([1]; mean ± SD of three replicates) | relative peak area (%), peptide remaining in human serum, 2 h ([1]; 2 h, mean ± SD of three replicates) | relative peak area (%), peptide remaining in human serum, 12 h ([1]; mean ± SD of three replicates) | remaining at 2 h, 256 μM (serum proteases) | remaining at 4 h, 256 μM (serum proteases) | remaining at 6 h, 256 μM (serum proteases) | solubility in the aqueous treatment solution [2] | relative peak area (%), peptide remaining in human serum, 6 h ([1]; mean ± SD of three replicates) | peptide remaining in human serum, 24 h [1] | remaining at 12 h, 256 μM (serum proteases)
CC[C@H](C)[C@H](N)C(=O)N[C@H](C(=O)N[C@@H](CC(N)=O)C(=O)N[C@H](C(=O)N[C@@H](CC(C)C)C(=O)N[C@H](C(=O)N[C@@H](CO)C(=O)N[C@H](C(=O)N[C@H](C(=O)N[C@H](C(=O)N1CCC[C@H]1C(=O)N[C@H](C(=O)N[C@@H](CCCCN)C(=O)N[C@@H](CC(N)=O)C(=O)N[C@@H](CCC(N)=O)C(=O)N[C@@H](CC(C)C)C(=O)N[C@@H](CC(=O)O)C(=O)N[C@@H](CCCCN)C(=O)N[C@@H](Cc1ccc(O)cc1)C(=O)N[C@@H](CCC(N)=O)C(N)=O)[C@@H](C)CC)[C@@H](C)O)C(C)C)[C@@H](C)CC)[C@@H](C)O)C(C)C)[C@@H](C)CC [AMPCry10Aa] (H-IINVLTSIVTPIKNQLDKYQ-NH2) | 92.2 ± 3.23% | about 40% | no longer detectable | 39.6 ± 2.44% | 18.6 ± 2.76% | ~0% | did not dissolve | – | – | –
CC[C@H](C)[C@H](NC(=O)[C@H](C)NC(=O)[C@@H](NC(=O)[C@@H](NC(=O)[C@@H](NC(=O)[C@@H](NC(=O)[C@@H](NC(=O)[C@H](CCCCN)NC(=O)[C@H](CC(C)C)NC(=O)[C@H](CC(N)=O)NC(=O)[C@H](CC(=O)O)NC(=O)[C@@H](N)CCCCN)[C@@H](C)O)[C@@H](C)CC)[C@@H](C)CC)C(C)C)[C@@H](C)O)C(=O)N[C@@H](CCCCN)C(=O)N[C@@H](CC(N)=O)C(=O)N[C@H](C(=O)N[C@@H](CC(C)C)C(=O)N[C@@H](CC(=O)O)C(=O)N[C@@H](CCCCN)C(=O)N[C@@H](Cc1ccc(O)cc1)C(=O)N[C@@H](CCC(N)=O)C(N)=O)[C@@H](C)CC [AMPCry10Aa_1] (H-KDNLKTIIVTAIKNILDKYQ-NH2) | 96.93 ± 0.51% | – | trace | 81.8 ± 1.54% | 74.7 ± 1.98% | 60% | – | 58.96 ± 2.33% | no longer detectable | 4.37 ± 1.32%
CC[C@H](C)[C@H](N)C(=O)N[C@H](C(=O)N[C@@H](CC(N)=O)C(=O)N[C@H](C(=O)N[C@@H](CCCCN)C(=O)N[C@H](C(=O)N[C@@H](CO)C(=O)N[C@@H](CC(C)C)C(=O)N[C@@H](CCCCN)C(=O)N[C@H](C(=O)N[C@H](C(=O)N[C@H](C(=O)N[C@@H](CCCCN)C(=O)N[C@@H](CC(N)=O)C(=O)N[C@@H](C)C(=O)N[C@@H](CC(C)C)C(=O)N[C@@H](CC(=O)O)C(=O)N[C@@H](CCCCN)C(=O)N[C@H](C(=O)N[C@@H](CCC(N)=O)C(N)=O)[C@@H](C)CC)[C@@H](C)CC)[C@@H](C)CC)[C@@H](C)O)[C@@H](C)O)C(C)C)[C@@H](C)CC [AMPCry10Aa_5] (H-IINVKTSLKTIIKNALDKIQ-NH2) | 92.83 ± 3.33% | – | trace | 81.6 ± 2.21% | 68.8 ± 0.99% | 40% | – | 36.73 ± 1.84% | no longer detectable | 8.11 ± 3.65%
